Calls of active or inactive are those of the source.
Assays:
[1] = intracellular Trypanosoma cruzi inhibitors in host cells – cell-based, plate reader, cherry-pick samples, set 3, dose response (AID 651818); assay type: functional;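 further: compounds incubated with infected cells for about four days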
[2] = microbe, parasite or virus in culture; assay type: functional; settings: Mycobacterium tuberculosis
[3] = ZM109 Env clade C HIV-1 fusion inhibitors, dose response, HeLa effector, CEM target cells, luciferase, cherry-pick (AID 652058); assay type: functional, cell-based
[4] = off-target signal loss in HeLa-CEM21 co-culture – HeLa F-luc CTL cells, cherry-picked, counter-screen for HIV-1 Env fusion inhibitor project, dose response (AID 652040); assay type: functional, cell-based;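 further: potency for signal decrease marking cytotoxic or nonspecific inhibition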
[5] = inhibitors of clade B AD8 Env fusion, dose response, cell-based, cherry-pick (AID 652062); assay type: functional;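 further: luciferase signal from cell-cell fusion driven by HIV-1 clade B AD8 Env; potency is for inhibitors of fusion seen as a drop in luminescence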
[6] = inhibitors of HIV Env-driven cell fusion, dose response, cherry-pick (AID 652057); assay type: functional, cell-based
BJ [7] = test: cells; assay type: functional, cell-based; settings: Homo sapiens
[8] = Luminescence Cell-Based Dose Retest to Confirm Inhibitors of Cancer Stem Cells. [Related pubchem assays (depositor defined):AID2717, AID2721]; assay type: functional; settings: Homo sapiens
BJ [9] = test: cytotoxicity toward BJ-TERT-LT-ST fibroblasts, dose response, cell-based, RAS-independent, luminescence (AID 1935); assay type: functional; settings: Homo sapiens;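 further: BJ fibroblasts immortalized with TERT plus LT and ST oncogenes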
BJ [10] = test: cytotoxicity toward BJ-TERT fibroblasts, dose response, cell-based, RAS-independent, luminescence (AID 1933); assay type: functional; settings: Homo sapiens
[11] = system: Streptococcus sp. 'group A'; test: growth inhibition of control SK(-) GAS strain, dose response, counter-screen for streptokinase expression inhibitor project, luminescence, kanamycin, BacTiterGlo, confirmation (AID 1900); assay type: functional, organism-based
Streptococcus = test: Group A Streptococcus viability loss, dose response, counter-screen for streptokinase expression inhibitor project, luminescence, BacTiterGlo (AID 1915); assay type: functional, organism-based;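 further: potency for reduction of bacterial viability or growth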
INS1 = test: beta cell apoptosis inhibitors, cytokine rescue, dose response, luminescence, retest (AID 449756); assay type: functional, cell-based; settings: Rattus norvegicus;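 further: cell death triggered by IL-1 beta plus TNF-alpha plus IFN-gamma mixture; protective hits raise ATP signal compared with cytokine alone wells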
[12] = cytotoxicity toward DRD oncogenic fibroblasts, dose response, cell-based, non-viral oncogenic, luminescence (AID 1934); assay type: functional; settings: Homo sapiens
Streptokinase A = molecular target: T1, Streptokinase A (Streptococcus pyogenes serotype M1, UniProt P10520); test: S. pyogenes streptokinase expression inhibitors, potency, dose response, plasminogen activation absorbance, OD405 (AID 1914); assay type: functional, Streptococcus pyogenes M1 GAS;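 further: secreted streptokinase activity via plasminogen activation per viability signal from cell pellet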
T1 sequence (P10520 whole entry): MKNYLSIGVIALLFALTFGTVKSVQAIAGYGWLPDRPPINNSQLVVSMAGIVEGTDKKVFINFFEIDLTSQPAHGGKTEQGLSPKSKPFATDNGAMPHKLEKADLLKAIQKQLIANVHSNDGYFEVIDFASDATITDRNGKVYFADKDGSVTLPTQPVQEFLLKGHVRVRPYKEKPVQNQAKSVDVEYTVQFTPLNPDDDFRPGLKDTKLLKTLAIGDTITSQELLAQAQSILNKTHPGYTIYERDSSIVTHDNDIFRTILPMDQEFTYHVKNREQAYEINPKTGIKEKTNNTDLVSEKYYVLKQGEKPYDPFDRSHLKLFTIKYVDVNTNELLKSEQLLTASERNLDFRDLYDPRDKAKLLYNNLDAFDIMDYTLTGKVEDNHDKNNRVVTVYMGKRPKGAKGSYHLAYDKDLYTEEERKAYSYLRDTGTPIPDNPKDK

H9c2 = test: cells; assay type: functional, cell-based; settings: Rattus norvegicus, H9c2, Myocardium;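 further: confirmatory concentration-response retest of ultra-high-throughput screening hits for modulation of myocardial damage; cell death induced by hydrogen peroxide oxidative stress; compound pretreatment for 60 min then peroxide exposure for 2 h; potency is for protecting the cells against peroxide damage rather than for killing them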
[13] = molecular target: FAD-linked sulfhydryl oxidase ALR (Homo sapiens, UniProt P55789); test: inhibitors of human ALR sulfhydryl oxidase, dose response, biochemical, H2O2 detection, luminescence, cherry-pick (AID 493248)
FAD-linked sulfhydryl oxidase ALR, sequence (P55789 whole entry): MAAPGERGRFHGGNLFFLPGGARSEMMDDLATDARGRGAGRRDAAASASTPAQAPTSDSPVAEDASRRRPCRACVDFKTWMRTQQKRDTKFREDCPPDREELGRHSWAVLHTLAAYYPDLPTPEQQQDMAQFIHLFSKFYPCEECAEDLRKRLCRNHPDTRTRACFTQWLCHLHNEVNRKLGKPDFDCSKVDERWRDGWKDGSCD

Genome polyprotein = Genome polyprotein (dengue virus type 2, UniProt P29990); test: Dengue-2 NS5 methyltransferase inhibitors, primary screen, biochemical, confirmation dose response (AID 588689); assay type: functional
Genome polyprotein, sequence (P29990 2492-3391 limits assumed): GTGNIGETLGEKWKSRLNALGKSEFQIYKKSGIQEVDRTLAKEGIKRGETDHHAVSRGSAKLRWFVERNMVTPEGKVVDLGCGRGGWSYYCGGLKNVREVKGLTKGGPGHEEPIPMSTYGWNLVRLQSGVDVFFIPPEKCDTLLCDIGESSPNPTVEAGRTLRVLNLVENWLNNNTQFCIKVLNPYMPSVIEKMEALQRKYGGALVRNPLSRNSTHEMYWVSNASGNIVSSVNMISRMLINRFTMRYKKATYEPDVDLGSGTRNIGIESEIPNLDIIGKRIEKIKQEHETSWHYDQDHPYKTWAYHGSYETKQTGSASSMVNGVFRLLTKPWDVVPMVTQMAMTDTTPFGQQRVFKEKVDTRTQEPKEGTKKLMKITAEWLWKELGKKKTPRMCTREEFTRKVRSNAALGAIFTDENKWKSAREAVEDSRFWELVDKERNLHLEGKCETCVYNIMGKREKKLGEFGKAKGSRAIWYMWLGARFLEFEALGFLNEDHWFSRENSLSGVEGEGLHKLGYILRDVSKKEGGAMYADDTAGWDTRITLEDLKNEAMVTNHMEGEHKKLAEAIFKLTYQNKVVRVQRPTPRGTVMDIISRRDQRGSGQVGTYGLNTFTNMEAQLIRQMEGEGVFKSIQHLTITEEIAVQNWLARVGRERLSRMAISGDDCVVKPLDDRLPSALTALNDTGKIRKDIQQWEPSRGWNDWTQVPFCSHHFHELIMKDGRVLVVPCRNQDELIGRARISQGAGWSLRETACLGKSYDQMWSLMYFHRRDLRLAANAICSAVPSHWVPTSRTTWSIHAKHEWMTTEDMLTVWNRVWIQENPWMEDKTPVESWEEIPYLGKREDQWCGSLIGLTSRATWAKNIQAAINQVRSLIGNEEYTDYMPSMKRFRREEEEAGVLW

[14] = molecular target: Heat shock protein HSP 90-alpha (Homo sapiens, UniProt P07900); assay type: functional, organism-based
[15] = molecular target: Induced myeloid leukemia cell differentiation protein Mcl-1 (Homo sapiens, UniProt Q07820); assay type: functional
Induced myeloid leukemia cell differentiation protein Mcl-1, sequence (Q07820 whole entry): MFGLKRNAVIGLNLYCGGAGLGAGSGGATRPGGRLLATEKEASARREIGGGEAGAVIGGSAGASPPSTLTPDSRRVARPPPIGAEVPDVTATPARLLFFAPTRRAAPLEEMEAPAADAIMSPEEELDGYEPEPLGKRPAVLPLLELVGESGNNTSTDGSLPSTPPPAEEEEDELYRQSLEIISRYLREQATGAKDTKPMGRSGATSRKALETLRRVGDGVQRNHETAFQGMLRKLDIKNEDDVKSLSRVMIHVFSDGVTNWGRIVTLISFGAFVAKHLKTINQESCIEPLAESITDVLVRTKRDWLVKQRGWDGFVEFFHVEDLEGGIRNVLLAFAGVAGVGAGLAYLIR

[16] = molecular target: T2, Replicative DNA helicase DnaB (Mycobacterium tuberculosis, UniProt P9WMR3); test: DnaB intein splicing inhibitors, dose response, biochemical, cell-free fluorescence (AID 449749); assay type: functional
T2 sequence (P9WMR3 whole entry): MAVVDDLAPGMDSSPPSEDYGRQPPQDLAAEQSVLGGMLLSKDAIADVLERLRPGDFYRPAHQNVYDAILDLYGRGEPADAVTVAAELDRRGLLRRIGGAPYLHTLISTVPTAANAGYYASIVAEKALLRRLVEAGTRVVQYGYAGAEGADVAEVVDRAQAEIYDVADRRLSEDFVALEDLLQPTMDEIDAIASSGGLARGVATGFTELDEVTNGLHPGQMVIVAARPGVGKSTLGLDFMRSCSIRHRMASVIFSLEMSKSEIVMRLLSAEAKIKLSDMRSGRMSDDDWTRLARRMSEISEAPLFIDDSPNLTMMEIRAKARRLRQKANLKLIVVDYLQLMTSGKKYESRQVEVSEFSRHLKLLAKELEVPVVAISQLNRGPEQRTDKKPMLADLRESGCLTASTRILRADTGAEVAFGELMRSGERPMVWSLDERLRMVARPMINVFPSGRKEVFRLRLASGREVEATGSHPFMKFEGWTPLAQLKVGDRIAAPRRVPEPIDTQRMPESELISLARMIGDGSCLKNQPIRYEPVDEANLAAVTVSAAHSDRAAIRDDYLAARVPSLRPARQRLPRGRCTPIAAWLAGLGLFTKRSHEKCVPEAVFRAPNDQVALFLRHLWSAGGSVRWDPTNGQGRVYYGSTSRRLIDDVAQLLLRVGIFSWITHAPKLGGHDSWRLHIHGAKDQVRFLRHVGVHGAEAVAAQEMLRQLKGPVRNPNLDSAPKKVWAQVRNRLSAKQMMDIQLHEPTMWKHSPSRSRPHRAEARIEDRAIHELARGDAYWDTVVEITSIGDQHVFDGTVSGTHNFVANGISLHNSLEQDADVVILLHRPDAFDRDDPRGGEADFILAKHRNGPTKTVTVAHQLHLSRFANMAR

cells = assay type: functional
Protein RecA = molecular target: T3, Protein RecA (Mycobacterium tuberculosis, UniProt P9WHJ3); test: Fluorescence Cell-Free Homogeneous Dose Retest to Identify Inhibitors of RecA-Intein Splicing Activity. [Related pubchem assays (depositor defined):AID2097, AID2223, AID489010, AID492950]; assay type: functional
T3 sequence (P9WHJ3 whole entry): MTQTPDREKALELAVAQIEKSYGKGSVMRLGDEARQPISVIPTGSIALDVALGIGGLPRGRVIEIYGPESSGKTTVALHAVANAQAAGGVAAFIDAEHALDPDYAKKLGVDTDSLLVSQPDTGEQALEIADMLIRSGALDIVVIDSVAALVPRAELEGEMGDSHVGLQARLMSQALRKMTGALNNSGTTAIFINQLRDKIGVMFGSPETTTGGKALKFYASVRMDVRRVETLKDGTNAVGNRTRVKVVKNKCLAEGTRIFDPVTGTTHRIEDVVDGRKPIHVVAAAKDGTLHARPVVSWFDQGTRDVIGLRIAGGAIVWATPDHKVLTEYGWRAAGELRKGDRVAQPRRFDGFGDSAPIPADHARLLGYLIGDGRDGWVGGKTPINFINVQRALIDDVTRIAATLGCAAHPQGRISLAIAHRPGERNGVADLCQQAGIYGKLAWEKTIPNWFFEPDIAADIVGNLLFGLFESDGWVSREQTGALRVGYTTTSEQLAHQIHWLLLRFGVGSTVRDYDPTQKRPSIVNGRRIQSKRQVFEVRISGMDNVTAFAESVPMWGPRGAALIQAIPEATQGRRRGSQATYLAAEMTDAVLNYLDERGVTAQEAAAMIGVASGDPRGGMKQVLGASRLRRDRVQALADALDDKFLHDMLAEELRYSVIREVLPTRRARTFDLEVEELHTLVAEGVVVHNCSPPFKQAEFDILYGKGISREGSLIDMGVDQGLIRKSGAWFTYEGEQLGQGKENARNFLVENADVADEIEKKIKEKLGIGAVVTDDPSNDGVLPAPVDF

C[C@H]1CN([C@@H](C)CO)C(=O)c2cccc(NC(=O)c3ccc(-c4nccs4)cc3)c2O[C@@H]1CN(C)Cc1ccc(C(=O)Nc2ccccc2N)cc1
AC50 [1]: 2.92 µM (active)

COc1ccc(S(=O)(=O)Nc2ccc3c(c2)CC(=O)N([C@H](C)CO)C[C@@H](C)[C@@H](CN(C)S(=O)(=O)c2ccc(OC)cc2)O3)cc1
AC50 [1]: 3.98 µM (active)

CN(C(=O)c1cccc(Nc2ccc(-c3ccc4c(c3)OCCO4)nn2)c1)C1CCCCC1
CC50 [2]: 28.4 µM (active)

CCC(C)(C)NC(=O)C(c1ccccc1F)N(Cc1ccco1)C(=O)c1csnn1 (stereo not drawn)
AC50 [3]: 22.6 µM (active) | AC50 [4]: 7.86 µM (active) | AC50 [5]: 36.2 µM (active) | AC50 [6]: 5 µM (active)

CCCCC(CC)CN1C(=O)/C(=C/c2ccncc2)SC1=S (stereo not drawn)
EC50 (BJ [7]): > 150 µM (not active) | AC50 [8]: 7.84 µM (active) | EC50 (BJ [9]): > 150 µM (not active) | EC50 (BJ [10]): > 150 µM (not active) | EC50 [11]: 2.59 µM (active) | EC50 (Streptococcus): 9.05 µM (active) | AC50 (INS1): 17.7 µM (active) | EC50 [12]: > 150 µM (not active) | EC50 (Streptokinase A): > 150 µM (not active)

COc1cc(Br)cc(/C=N/NC(=O)c2ccccc2O)c1O
AC50 [1]: 1.49 µM (active)

COc1cc(-c2ccc3oc(-c4ccsc4)cc(=O)c3c2)cc(OC)c1OC
CC50 [2]: 14.3 µM (active) | IC50 (H9c2): > 79 µM (inactive)

Sc1nnc(-c2ccco2)n1/N=C/C(Cl)=C/c1ccccc1
AC50 [13]: 0.798 µM (active) | IC50 (Genome polyprotein): 62.7 µM (active)

CCOC(=O)c1c(CSc2ccccc2)oc2cc(Br)c(O)c(CN(C)C)c12
AC50 [3]: 1.58 µM (active) | AC50 [4]: 1.38 µM (active) | AC50 [5]: 2.46 µM (active) | AC50 [6]: 0.907 µM (active)

Cc1noc(C)c1S(=O)(=O)N(C)C[C@H]1Oc2c(NC(=O)c3ccc(-c4nccs4)cc3)cccc2C(=O)N([C@@H](C)CO)C[C@H]1C
AC50 [1]: 5.82 µM (active)

C[C@H](CO)N1C[C@H](C)[C@H](CN(C)Cc2ccc(C(=O)Nc3ccccc3N)cc2)Oc2ccc(NC(=O)Nc3ccc(C(F)(F)F)cc3)cc2CC1=O
AC50 [1]: 1.86 µM (active)

CC(C)(C)c1nn(-c2ccccc2)c2nc(O)c(C=O)cc12
AC50 [14]: 1.68 µM (active) | AC50 [8]: 6.32 µM (active)

C[C@H]1CN([C@@H](C)CO)C(=O)c2cccc(NC(=O)Nc3ccc(C(F)(F)F)cc3)c2O[C@H]1CN(C)Cc1ccc(C(F)(F)F)cc1
AC50 [1]: 3.22 µM (active)

COc1ccccc1N1C(=O)C2ON(c3ccccc3)C(c3ccc(N(C)C)cc3)C2C1=O (stereo not drawn)
IC50 [15]: 9.03 µM (not active)

COCCCn1c(SCc2cccc(OC)c2)nc2cc(OC)c(OC)cc2c1=N
CC50 [2]: > 40 µM (active)

CCOC(=O)[C@H]1[C@H]2COc3ccccc3[C@@H]2N2C(=O)c3c(C)cc(C)cc3NC(=O)[C@@]12C
AC50 [3]: 1.7 µM (active) | AC50 [4]: 1.04 µM (active) | AC50 [5]: 0.611 µM (active) | AC50 [6]: 0.712 µM (active)

CCc1ccc([C@H]2[C@@H]3C(=O)C[C@@H]4C(=O)N(Cc5ccccc5)C(=O)[C@@H]4[C@@H]3CN2S(=O)(=O)c2ccc(C)cc2)cc1
AC50 [3]: 1.48 µM (active) | AC50 [4]: 1.8 µM (active) | AC50 [5]: 11.3 µM (active) | AC50 [6]: 1.17 µM (active)

C[C@H]1CN([C@@H](C)CO)C(=O)Cc2cc(NS(=O)(=O)c3ccc(Cl)cc3)ccc2O[C@H]1CN(C)Cc1ccccc1
AC50 [1]: 4.6 µM (active)

COc1ccc(N/C=C/C(=O)c2sc(-c3ccccc3)nc2C)cc1
CC50 [2]: > 40 µM (active)

C[C@H]1CN([C@@H](C)CO)C(=O)Cc2cc(NC(=O)Nc3cccc4ccccc34)ccc2O[C@@H]1CN(C)Cc1ccc(Oc2ccccc2)cc1
AC50 [1]: 3.12 µM (active)

N=C(Cc1ccc(Cl)c(Cl)c1)NOC(=O)c1ccc(Br)o1
AC50 [14]: 8.23 µM (active)

CC(C(c1ccc2c(c1)OCO2)c1c(N)n(C)c(=O)n(C)c1=O)[N+](=O)[O-] (stereo not drawn)
CC50 [2]: 36.3 µM (active)

CCN(C[C@H]1N[C@@](C)(C(=O)OC)[C@H]2C(=O)N(Cc3ccccc3)C(=O)[C@@H]12)C(=O)Nc1ccc(C)cc1
AC50 [3]: 0.959 µM (active) | AC50 [4]: 1.61 µM (active) | AC50 [5]: 3.28 µM (active) | AC50 [6]: 0.83 µM (active)

O=C1NC(=O)C(=Cc2ccc(Oc3ccc([N+](=O)[O-])cc3)cc2)C(=O)N1
AC50 [16]: 29.5 µM (active) | IC50 (cells): 43 µM (active) | IC50 (Genome polyprotein): 34.5 µM (active) | EC50 (Protein RecA): > 380 µM (inactive)
